Patent US9980943B2, “Methods of treating muscular dystrophy” (BOARD OF REGENTS OF THE NEVADA SYSTEM OF HIGHER EDUCATION, …, priority 2013, dated 2018)

Key:
Format in all cases: cell-based, mouse
[1] = test system: β-galactosidase in CMV-LacZ C2C12 myotubes; assay: CMV-LacZ secondary screen in C2C12 myotubes (β-Gal stabilizing assay); conditions: for CMV-LACZ in Myotubes, signal relative to DMSO: C2C12 CMV-LacZ myotubes, fold relative to DMSO; for CMV-LACZ in Myotubes (β-galactosidase activity relative to DMSO): CMV-LacZ C2C12 myotubes, 96-well format
Excerpt: In order to determine compounds that acted to stabilize β-gal in myogenic cells, a CMV-LacZ C2C12 cell line was used in a secondary screen. The EGFP gene from the pEGFP (Clontech) vector was replaced by LACZ PCR product with digests of the vector/PCR product performed using EcoRI (NEB) and NotI (NEB) and ligated using T4 DNA Ligase (NEB) following standard procedures to produce the CMV-LACZ vector. The LACZ gene was generated by PCR from the pBK-RSV (Stratagene) vector using primers LACZ EcoRI F- and LACZ NotI R-. The CMV-LACZ vector was then digested with AfIII (NEB) to linearize the construct, which was then transfected in C2C12 myoblasts using Lipofectamine 2000 (Invitrogen) following the manufacturer's instructions. […] Clonal lines were selected and screened for βgal levels using the myoblast FDG assay.
The assays were used the original 96-well format and new dose-response curves for myoblasts (N=3-6 replicates for each data point), myotubes (N=3-6 replicates for data point), and CMV-LacZ secondary assay (N=2 replicates for each data point) using concentrations of 0.5 μM, 1 μM, 5 μM, 10 μM, 20 μM, and 40 μM (Tables 9-16).

[2] = test system: α7 integrin (LacZ reporter in α7βgal+/− myoblasts); assay: Myoblast α7+/LacZ integrin FDG assay (Burkin assay in myoblasts, 96-well); conditions: α7+/LacZ myoblasts, 96-well
[3] = test system: α7 integrin (LacZ reporter in α7+/LacZ myotubes); assay: Myotube α7 integrin FDG assay (Burkin assay in myotubes, 96-well); conditions: myotubes

Compound	CMV-LACZ in Myotubes, signal relative to DMSO ([1]; 5 uM)	CMV-LACZ in Myotubes, signal relative to DMSO ([1]; 10 uM)	CMV-LACZ in Myotubes, signal relative to DMSO ([1]; 20 uM)	CMV-LACZ in Myotubes, signal relative to DMSO ([1]; 40 uM)	Burkin Assay in Myoblasts, signal relative to DMSO ([2]; 0.5 uM)	Burkin Assay in Myoblasts, signal relative to DMSO ([2]; 1 uM)	Burkin Assay in Myoblasts, signal relative to DMSO ([2]; 5 uM)	Burkin Assay in Myoblasts, signal relative to DMSO ([2]; 10 uM)	Burkin Assay in Myoblasts, signal relative to DMSO ([2]; 20 uM)	Burkin Assay in Myoblasts, signal relative to DMSO ([2]; 40 uM)	Burkin Assay in Myotubes, α7 integrin LacZ reporter signal relative to DMSO ([3]; 0.5 uM)	Burkin Assay in Myotubes, α7 integrin LacZ reporter signal relative to DMSO ([3]; 1 uM)	Burkin Assay in Myotubes, α7 integrin LacZ reporter signal relative to DMSO ([3]; 5 uM)	Burkin Assay in Myotubes, α7 integrin LacZ reporter signal relative to DMSO ([3]; 10 uM)	Burkin Assay in Myotubes, α7 integrin LacZ reporter signal relative to DMSO ([3]; 20 uM)	Burkin Assay in Myotubes, α7 integrin LacZ reporter signal relative to DMSO ([3]; 40 uM)	Burkin Assay in Myoblasts, value relative to DMSO ([2]; 0.5 uM)	Burkin Assay in Myoblasts, value relative to DMSO ([2]; 1 uM)	Burkin Assay in Myoblasts, value relative to DMSO ([2]; 5 uM)	Burkin Assay in Myoblasts, value relative to DMSO ([2]; 10 uM)	also measured
Cc1cc2ccccc2n2c(SCC(=O)NCc3cccs3)nnc12 [MLS000526364-01]	0.9507	0.953	1.1735	1.1865	0.9747	0.9502	1.045	1.085	1.114	1.029	0.9648	0.8953	1.033	0.8908	1.358	0.9162					
c1ccc(-c2cnc(-c3ccccc3)nc2)cc1 [MLS000532078-01]	0.791	0.8914	0.9443	0.8623													1.091	1.076	0.944	0.9431	Burkin Assay in Myoblasts, value relative to DMSO ([2]; 20 uM): 1.09; Burkin Assay in Myoblasts, value relative to DMSO ([2]; 40 uM): 1.077; Burkin Assay in Myotubes (signal relative to DMSO) ([3]; 0.5 uM): 1.0727; Burkin Assay in Myotubes (signal relative to DMSO) ([3]; 1 uM): 1.078; Burkin Assay in Myotubes (signal relative to DMSO) ([3]; 5 uM): 1.239; Burkin Assay in Myotubes (signal relative to DMSO) ([3]; 10 uM): 1.114; Burkin Assay in Myotubes (signal relative to DMSO) ([3]; 20 uM): 1.078; Burkin Assay in Myotubes (signal relative to DMSO) ([3]; 40 uM): 1.043
Cc1ccc(NC(=O)CC2COc3ccccc3O2)cc1 (stereo not shown) [MLS000534926-01]																	1.522	0.9473	0.8586	0.8832	CMV-LACZ in Myotubes (β-galactosidase activity relative to DMSO) ([1]; 5 uM): 0.9724; CMV-LACZ in Myotubes (β-galactosidase activity relative to DMSO) ([1]; 10 uM): 0.969; CMV-LACZ in Myotubes (β-galactosidase activity relative to DMSO) ([1]; 20 uM): 0.9547; CMV-LACZ in Myotubes (β-galactosidase activity relative to DMSO) ([1]; 40 uM): 0.844; Burkin Assay in Myoblasts, value relative to DMSO ([2]; 20 uM): 0.5996; Burkin Assay in Myoblasts, value relative to DMSO ([2]; 40 uM): 0.4222; Burkin Assay in Myotubes (signal relative to DMSO) ([3]; 0.5 uM): 1.026; Burkin Assay in Myotubes (signal relative to DMSO) ([3]; 1 uM): 0.9445; Burkin Assay in Myotubes (signal relative to DMSO) ([3]; 5 uM): 1.006; Burkin Assay in Myotubes (signal relative to DMSO) ([3]; 10 uM): 0.9622; Burkin Assay in Myotubes (signal relative to DMSO) ([3]; 20 uM): 1.338; Burkin Assay in Myotubes (signal relative to DMSO) ([3]; 40 uM): 0.8565
Cc1ccc(NC(=O)COc2ccccc2CNC(C)(C)CC(C)(C)C)cc1 [MLS000538580-01]	0.6613	0.5729	0.3838	0.2705	0.9645	0.9097	0.8691	0.5306	0.03863	0.02896	1.087	1.025	0.8641	0.4774	0.928	0.1825					
